Results published in the NIST ThermoML archive (doi:10.1016/j.jct.2015.04.029).
± gives the expanded uncertainty stated by the source.

Columns and labels:
[1] = wn = mass fraction of the nth substance listed; details: for surface tension liquid-gas: Maximal bubble pressure; for mass density: 100 kPa, Liquid, Vibrating tube method
[2] = refractive index (Na D-line) (dimensionless); wn = mass fraction of the nth substance listed; details: 100 kPa, Liquid, Standard Abbe refractometry

CCCCn1cc[n+](C)c1.N[C@@H](CO)C(=O)[O-] [1-butyl-3-methylimidazolium L-serinate] + O
Details | mass density [kg/m3] | refractive index | surface tension liquid-gas [mN/m]
[1], 298.15 K, w2 = 0.00489 | 1156.16 ± 1.1 | – | –
[1], 298.15 K, w2 = 0.00632 | 1156.21 ± 1.1 | – | –
[1], 298.15 K, w2 = 0.00706 | – | – | 46.4 ± 0.4
[1], 298.15 K, w2 = 0.00783 | 1156.25 ± 1.1 | – | –
[1], 298.15 K, w2 = 0.00859 | – | – | 46.7 ± 0.4
[1], 298.15 K, w2 = 0.00933 | 1156.29 ± 1.1 | – | –
[1], 298.15 K, w2 = 0.01019 | – | – | 46.9 ± 0.5
[1], 298.15 K, w2 = 0.01094 | 1156.32 ± 1.1 | – | –
[1], 298.15 K, w2 = 0.01171 | – | – | 47.1 ± 0.5
[1], 298.15 K, w2 = 0.01331 | – | – | 47.3 ± 0.5
[1], 303.15 K, w2 = 0.00489 | 1152.97 ± 1.1 | – | –
[1], 303.15 K, w2 = 0.00632 | 1153.01 ± 1.1 | – | –
[1], 303.15 K, w2 = 0.00706 | – | – | 46.2 ± 0.4
[1], 303.15 K, w2 = 0.00783 | 1153.06 ± 1.1 | – | –
[1], 303.15 K, w2 = 0.00859 | – | – | 46.4 ± 0.4
[1], 303.15 K, w2 = 0.00933 | 1153.1 ± 1.1 | – | –
[1], 303.15 K, w2 = 0.01019 | – | – | 46.7 ± 0.4
[1], 303.15 K, w2 = 0.01094 | 1153.15 ± 1.1 | – | –
[1], 303.15 K, w2 = 0.01171 | – | – | 46.9 ± 0.5
[1], 303.15 K, w2 = 0.01331 | – | – | 47.1 ± 0.5
[1], 308.15 K, w2 = 0.00489 | 1149.77 ± 1.1 | – | –
[1], 308.15 K, w2 = 0.00632 | 1149.82 ± 1.1 | – | –
[1], 308.15 K, w2 = 0.00706 | – | – | 46 ± 0.4
[1], 308.15 K, w2 = 0.00783 | 1149.86 ± 1.1 | – | –
[1], 308.15 K, w2 = 0.00859 | – | – | 46.2 ± 0.4
[1], 308.15 K, w2 = 0.00933 | 1149.91 ± 1.1 | – | –
[1], 308.15 K, w2 = 0.01019 | – | – | 46.4 ± 0.4
[1], 308.15 K, w2 = 0.01094 | 1149.97 ± 1.1 | – | –
[1], 308.15 K, w2 = 0.01171 | – | – | 46.6 ± 0.4
[1], 308.15 K, w2 = 0.01331 | – | – | 46.9 ± 0.4
[1], 313.15 K, w2 = 0.00489 | 1146.61 ± 1.1 | – | –
[1], 313.15 K, w2 = 0.00632 | 1146.67 ± 1.1 | – | –
[1], 313.15 K, w2 = 0.00706 | – | – | 45.7 ± 0.4
[1], 313.15 K, w2 = 0.00783 | 1146.72 ± 1.1 | – | –
[1], 313.15 K, w2 = 0.00859 | – | – | 45.9 ± 0.4
[1], 313.15 K, w2 = 0.00933 | 1146.76 ± 1.1 | – | –
[1], 313.15 K, w2 = 0.01019 | – | – | 46.1 ± 0.4
[1], 313.15 K, w2 = 0.01094 | 1146.82 ± 1.1 | – | –
[1], 313.15 K, w2 = 0.01171 | – | – | 46.3 ± 0.4
[1], 313.15 K, w2 = 0.01331 | – | – | 46.6 ± 0.4
[1], 318.15 K, w2 = 0.00489 | 1143.46 ± 1.1 | – | –
[1], 318.15 K, w2 = 0.00632 | 1143.52 ± 1.1 | – | –
[1], 318.15 K, w2 = 0.00706 | – | – | 45.4 ± 0.4
[1], 318.15 K, w2 = 0.00783 | 1143.56 ± 1.1 | – | –
[1], 318.15 K, w2 = 0.00859 | – | – | 45.6 ± 0.4
[1], 318.15 K, w2 = 0.00933 | 1143.61 ± 1.1 | – | –
[1], 318.15 K, w2 = 0.01019 | – | – | 45.8 ± 0.4
[1], 318.15 K, w2 = 0.01094 | 1143.65 ± 1.1 | – | –
[1], 318.15 K, w2 = 0.01171 | – | – | 46 ± 0.4
[1], 318.15 K, w2 = 0.01331 | – | – | 46.3 ± 0.4
[1], 323.15 K, w2 = 0.00489 | 1140.24 ± 1.1 | – | –
[1], 323.15 K, w2 = 0.00632 | 1140.3 ± 1 | – | –
[1], 323.15 K, w2 = 0.00706 | – | – | 45.2 ± 0.4
[1], 323.15 K, w2 = 0.00783 | 1140.34 ± 1.1 | – | –
[1], 323.15 K, w2 = 0.00859 | – | – | 45.4 ± 0.4
[1], 323.15 K, w2 = 0.00933 | 1140.39 ± 1.1 | – | –
[1], 323.15 K, w2 = 0.01019 | – | – | 45.6 ± 0.4
[1], 323.15 K, w2 = 0.01094 | 1140.45 ± 1.1 | – | –
[1], 323.15 K, w2 = 0.01171 | – | – | 45.8 ± 0.4
[1], 323.15 K, w2 = 0.01331 | – | – | 46 ± 0.4
[1], 328.15 K, w2 = 0.00489 | 1137.09 ± 1.1 | – | –
[1], 328.15 K, w2 = 0.00632 | 1137.16 ± 1.1 | – | –
[1], 328.15 K, w2 = 0.00706 | – | – | 44.9 ± 0.4
[1], 328.15 K, w2 = 0.00783 | 1137.21 ± 1.1 | – | –
[1], 328.15 K, w2 = 0.00859 | – | – | 45.1 ± 0.4
[1], 328.15 K, w2 = 0.00933 | 1137.27 ± 1.1 | – | –
[1], 328.15 K, w2 = 0.01019 | – | – | 45.3 ± 0.4
[1], 328.15 K, w2 = 0.01094 | 1137.32 ± 1.1 | – | –
[1], 328.15 K, w2 = 0.01171 | – | – | 45.5 ± 0.4
[1], 328.15 K, w2 = 0.01331 | – | – | 45.7 ± 0.4
[1], 333.15 K, w2 = 0.00489 | 1133.97 ± 1.1 | – | –
[1], 333.15 K, w2 = 0.00632 | 1134.03 ± 1.1 | – | –
[1], 333.15 K, w2 = 0.00706 | – | – | 44.7 ± 0.4
[1], 333.15 K, w2 = 0.00783 | 1134.08 ± 1.1 | – | –
[1], 333.15 K, w2 = 0.00859 | – | – | 44.9 ± 0.4
[1], 333.15 K, w2 = 0.00933 | 1134.13 ± 1.1 | – | –
[1], 333.15 K, w2 = 0.01019 | – | – | 45.1 ± 0.4
[1], 333.15 K, w2 = 0.01094 | 1134.18 ± 1.1 | – | –
[1], 333.15 K, w2 = 0.01171 | – | – | 45.3 ± 0.4
[1], 333.15 K, w2 = 0.01331 | – | – | 45.5 ± 0.4
[1], 338.15 K, w2 = 0.00489 | 1130.83 ± 1.1 | – | –
[1], 338.15 K, w2 = 0.00632 | 1130.9 ± 1 | – | –
[1], 338.15 K, w2 = 0.00706 | – | – | 44.5 ± 0.4
[1], 338.15 K, w2 = 0.00783 | 1130.95 ± 1.1 | – | –
[1], 338.15 K, w2 = 0.00859 | – | – | 44.7 ± 0.4
[1], 338.15 K, w2 = 0.00933 | 1131.01 ± 1.1 | – | –
[1], 338.15 K, w2 = 0.01019 | – | – | 44.9 ± 0.4
[1], 338.15 K, w2 = 0.01094 | 1131.07 ± 1.1 | – | –
[1], 338.15 K, w2 = 0.01171 | – | – | 45.1 ± 0.4
[1], 338.15 K, w2 = 0.01331 | – | – | 45.4 ± 0.4
[2], 298.15 K, w2 = 0.00594 | – | 1.5125 ± 0.0005 | –
[2], 298.15 K, w2 = 0.00746 | – | 1.5122 ± 0.0005 | –
[2], 298.15 K, w2 = 0.00898 | – | 1.5117 ± 0.0005 | –
[2], 298.15 K, w2 = 0.0105 | – | 1.5112 ± 0.0005 | –
[2], 298.15 K, w2 = 0.01211 | – | 1.5108 ± 0.0005 | –
[2], 303.15 K, w2 = 0.00594 | – | 1.5117 ± 0.0005 | –
[2], 303.15 K, w2 = 0.00746 | – | 1.5113 ± 0.0005 | –
[2], 303.15 K, w2 = 0.00898 | – | 1.5109 ± 0.0005 | –
[2], 303.15 K, w2 = 0.0105 | – | 1.5104 ± 0.0005 | –
[2], 303.15 K, w2 = 0.01211 | – | 1.5099 ± 0.0005 | –
[2], 308.15 K, w2 = 0.00594 | – | 1.5109 ± 0.0005 | –
[2], 308.15 K, w2 = 0.00746 | – | 1.5104 ± 0.0005 | –
[2], 308.15 K, w2 = 0.00898 | – | 1.5101 ± 0.0005 | –
[2], 308.15 K, w2 = 0.0105 | – | 1.5096 ± 0.0005 | –
[2], 308.15 K, w2 = 0.01211 | – | 1.5091 ± 0.0005 | –
[2], 313.15 K, w2 = 0.00594 | – | 1.5099 ± 0.0005 | –
[2], 313.15 K, w2 = 0.00746 | – | 1.5094 ± 0.0005 | –
[2], 313.15 K, w2 = 0.00898 | – | 1.5091 ± 0.0005 | –
[2], 313.15 K, w2 = 0.0105 | – | 1.5087 ± 0.0005 | –
[2], 313.15 K, w2 = 0.01211 | – | 1.5083 ± 0.0005 | –
[2], 318.15 K, w2 = 0.00594 | – | 1.5089 ± 0.0005 | –
[2], 318.15 K, w2 = 0.00746 | – | 1.5084 ± 0.0005 | –
[2], 318.15 K, w2 = 0.00898 | – | 1.5079 ± 0.0005 | –
[2], 318.15 K, w2 = 0.0105 | – | 1.5075 ± 0.0005 | –
[2], 318.15 K, w2 = 0.01211 | – | 1.5071 ± 0.0005 | –
[2], 323.15 K, w2 = 0.00594 | – | 1.5078 ± 0.0005 | –
[2], 323.15 K, w2 = 0.00746 | – | 1.5073 ± 0.0005 | –
[2], 323.15 K, w2 = 0.00898 | – | 1.5068 ± 0.0005 | –
[2], 323.15 K, w2 = 0.0105 | – | 1.5064 ± 0.0005 | –
[2], 323.15 K, w2 = 0.01211 | – | 1.5059 ± 0.0005 | –
[2], 328.15 K, w2 = 0.00594 | – | 1.5071 ± 0.0005 | –
[2], 328.15 K, w2 = 0.00746 | – | 1.5065 ± 0.0005 | –
[2], 328.15 K, w2 = 0.00898 | – | 1.5059 ± 0.0005 | –
[2], 328.15 K, w2 = 0.0105 | – | 1.5055 ± 0.0005 | –
[2], 328.15 K, w2 = 0.01211 | – | 1.5049 ± 0.0005 | –
[2], 333.15 K, w2 = 0.00594 | – | 1.5059 ± 0.0005 | –
[2], 333.15 K, w2 = 0.00746 | – | 1.5055 ± 0.0005 | –
[2], 333.15 K, w2 = 0.00898 | – | 1.5049 ± 0.0005 | –
[2], 333.15 K, w2 = 0.0105 | – | 1.5045 ± 0.0005 | –
[2], 333.15 K, w2 = 0.01211 | – | 1.5041 ± 0.0005 | –
[2], 338.15 K, w2 = 0.00594 | – | 1.5051 ± 0.0005 | –
[2], 338.15 K, w2 = 0.00746 | – | 1.5045 ± 0.0005 | –
[2], 338.15 K, w2 = 0.00898 | – | 1.5041 ± 0.0005 | –
[2], 338.15 K, w2 = 0.0105 | – | 1.5036 ± 0.0005 | –
[2], 338.15 K, w2 = 0.01211 | – | 1.5032 ± 0.0005 | –
